Data reported in the supplement of paper PMC10307832.

Columns and labels:
Test in all cases: relative viability (nuclei count vs DMSO), 5 days (fraction); higher = more cells survive
[1] = compound: N[C@@H]1CCCN(c2c(/C=C3\SC(=O)NC3=O)cccc2-c2ccccc2)C1 [AZD1208] + Nc1nc2[nH]cc(CCc3ccc(C(=O)N[C@@H](CCC(=O)O)C(=O)O)cc3)c2c(=O)[nH]1 [Pemetrexed] (partner 0.2 µM)
How it was run: (§1)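 Dosing by pin tool came one day after lung cancer cell lines were seeded in 1536-well plates, using either one drug or a fixed anchor-drug dose plus five library-drug doses (not always all listed) in √10 steps. After 5 days, nuclei were counted on 4× images. Relative viability is treated-well nuclei count divided by vehicle-well nuclei count, and values are medians of duplicate plates.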

[2] = compound: N[C@@H]1CCCN(c2c(/C=C3\SC(=O)NC3=O)cccc2-c2ccccc2)C1 [AZD1208] + O=C(c1cc(Cc2n[nH]c(=O)c3ccccc23)ccc1F)N1CCN(C(=O)C2CC2)CC1 [Olaparib] (partner 8 µM)
How it was run: as §1

[3] = compound: CN1CCN(CC1)C2=CC(=C(C=C2)NC3=NC(=C(S3)C(=O)C4=C(C=CC=C4Cl)Cl)N)OC [XMD14-99] + C[C@]1(O)C[C@@H](c2nc(-c3ccc4ccc(-c5ccccc5)nc4c3)c3c(N)nccn32)C1 [Linsitinib] (partner 1 µM)
How it was run: as §1

[4] = compound: N[C@@H]1CCCN(c2c(/C=C3\SC(=O)NC3=O)cccc2-c2ccccc2)C1 [AZD1208] + C[C@@H](Oc1cc(-c2cnn(C3CCNCC3)c2)cnc1N)c1c(Cl)ccc(F)c1Cl [Crizotinib] (partner 1 µM)
How it was run: as §1

Cell Line	relative viability ([1]; first compound 0.08 µM)	relative viability ([1]; first compound 0.253 µM)	relative viability ([1]; first compound 0.8 µM)	relative viability ([1]; first compound 2.53 µM)	relative viability ([1]; first compound 8 µM)	relative viability ([2]; first compound 0.08 µM)	relative viability ([2]; first compound 0.253 µM)	relative viability ([2]; first compound 0.8 µM)	relative viability ([2]; first compound 2.53 µM)	relative viability ([2]; first compound 8 µM)	relative viability ([3]; first compound 0.08 µM)	relative viability ([3]; first compound 0.8 µM)	relative viability ([3]; first compound 2.53 µM)	relative viability ([3]; first compound 8 µM)	relative viability ([4]; first compound 0.08 µM)	relative viability ([4]; first compound 0.253 µM)	relative viability ([4]; first compound 0.8 µM)	relative viability ([4]; first compound 2.53 µM)	relative viability ([4]; first compound 8 µM)
NCI-H522	0.975	0.986	0.979	0.824	0.828	0.527	0.504	0.633	0.703	0.568									
NCI-H1299						0.999	1.01	0.974	0.957	0.987	0.95	0.905	0.908	0.846	0.958	1	0.933	0.969	0.963
NCI-H1650	0.4	0.421	0.368	0.401	0.478	0.712	0.787	0.839	0.856	0.796					0.954	0.972	1.04	0.921	0.71
NCI-H1648	0.626	0.629	0.814	0.891	1.07	1.09	1.44	0.663	0.828	0.939									
NCI-H2342	0.869	0.749	0.699	0.738	0.568	0.49	0.383	0.372	0.456	0.376									
SW 900	0.475	0.443	0.454	0.472	0.469	0.692	0.538	0.893	0.923	0.668									
NCI-H1395	0.937	0.859	0.699	0.787	0.673	0.479	0.432	0.406	0.421	0.381	1.04	1.02	0.955	0.784					
